Measurements from PubChem BioAssay (NCI).
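Interpolation was linear, between the two tested concentrations surrounding the appropriate level; five concentrations were tested over 48 hours in 96-well plates. The concentration for full growth arrest is given as TGI.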

Key:
Test in all cases: DTP human tumour cell line panel, 48 h
OVCAR-8 ovarian = tested on: OVCAR-8 ovarian
A498 renal = tested on: A498 renal
OVCAR-4 ovarian = tested on: OVCAR-4 ovarian
LXFL 529 NSCLC = tested on: LXFL 529 NSCLC
SK-MEL-28 melanoma = tested on: SK-MEL-28 melanoma
NCI-H23 lung = tested on: NCI-H23 lung
HCT-116 colon = tested on: HCT-116 colon
SW-620 colon = tested on: SW-620 colon
SF-268 CNS = tested on: SF-268 CNS
HCC-2998 colon = tested on: HCC-2998 colon
SNB-75 CNS = tested on: SNB-75 CNS
M14 melanoma = tested on: M14 melanoma
NCI-H522 lung = tested on: NCI-H522 lung
SK-MEL-2 melanoma = tested on: SK-MEL-2 melanoma
UACC-62 melanoma = tested on: UACC-62 melanoma
DLD-1 colon = tested on: DLD-1 colon
RXF 393 renal = tested on: RXF 393 renal
NCI-H460 lung = tested on: NCI-H460 lung
MOLT-4 leukemia = tested on: MOLT-4 leukemia
HOP-62 NSCLC = tested on: HOP-62 NSCLC
SN12C renal = tested on: SN12C renal
SF-539 CNS = tested on: SF-539 CNS
SNB-19 CNS = tested on: SNB-19 CNS
ACHN renal = tested on: ACHN renal
KM12 colon = tested on: KM12 colon
786-0 renal = tested on: 786-0 renal
SK-MEL-5 melanoma = tested on: SK-MEL-5 melanoma
HL-60(TB) leukemia = tested on: HL-60(TB) leukemia
UO-31 renal = tested on: UO-31 renal
HCT-15 colon = tested on: HCT-15 colon
UACC-257 melanoma = tested on: UACC-257 melanoma
K-562 leukemia = tested on: K-562 leukemia
LOX IMVI melanoma = tested on: LOX IMVI melanoma
HOP-92 NSCLC = tested on: HOP-92 NSCLC
COLO 205 colon = tested on: COLO 205 colon
HOP-18 NSCLC = tested on: HOP-18 NSCLC
SF-295 CNS = tested on: SF-295 CNS
KM20L2 colon = tested on: KM20L2 colon
CCRF-CEM leukemia = tested on: CCRF-CEM leukemia
OVCAR-5 ovarian = tested on: OVCAR-5 ovarian
DMS 273 small cell lung = tested on: DMS 273 small cell lung
NCI-H226 lung = tested on: NCI-H226 lung
CAKI-1 renal = tested on: CAKI-1 renal
A549 NSCLC = tested on: A549 NSCLC
EKVX NSCLC = tested on: EKVX NSCLC
HT29 colon = tested on: HT29 colon
DMS 114 small cell lung = tested on: DMS 114 small cell lung
M19-MEL melanoma = tested on: M19-MEL melanoma
SK-OV-3 ovarian = tested on: SK-OV-3 ovarian
OVCAR-3 ovarian = tested on: OVCAR-3 ovarian
MALME-3M melanoma = tested on: MALME-3M melanoma
U251 CNS = tested on: U251 CNS
RXF-631 renal = tested on: RXF-631 renal
TK-10 renal = tested on: TK-10 renal
IGROV1 ovarian = tested on: IGROV1 ovarian
RPMI-8226 leukemia = tested on: RPMI-8226 leukemia
SNB-78 CNS = tested on: SNB-78 CNS
SR leukemia = tested on: SR leukemia

Measured: TGI

CCOC(=O)c1ncn2c1[nH]c(=S)c1ccccc12
> 100 µM: OVCAR-8 ovarian | A498 renal | OVCAR-4 ovarian | LXFL 529 NSCLC | SK-MEL-28 melanoma | NCI-H23 lung | HCT-116 colon | SF-268 CNS | HCC-2998 colon | SNB-75 CNS | M14 melanoma | NCI-H522 lung | SK-MEL-2 melanoma | UACC-62 melanoma | DLD-1 colon | RXF 393 renal | NCI-H460 lung | MOLT-4 leukemia | HOP-62 NSCLC | SN12C renal | SF-539 CNS | SNB-19 CNS | ACHN renal | KM12 colon | 786-0 renal | SK-MEL-5 melanoma | HL-60(TB) leukemia | UO-31 renal | HCT-15 colon | UACC-257 melanoma | K-562 leukemia | LOX IMVI melanoma | HOP-92 NSCLC | COLO 205 colon | HOP-18 NSCLC | SF-295 CNS | KM20L2 colon | CCRF-CEM leukemia | OVCAR-5 ovarian | DMS 273 small cell lung | NCI-H226 lung | CAKI-1 renal | A549 NSCLC | EKVX NSCLC | HT29 colon | DMS 114 small cell lung | M19-MEL melanoma | SK-OV-3 ovarian | OVCAR-3 ovarian | MALME-3M melanoma | U251 CNS | RXF-631 renal | TK-10 renal | IGROV1 ovarian | RPMI-8226 leukemia
62 µM: SW-620 colon

FC(F)(F)c1ccc(C2SCc3nc4ccccc4n32)cc1 (centres undefined)
96.2 µM: HL-60(TB) leukemia
48.8 µM: HOP-92 NSCLC
> 100 µM: OVCAR-8 ovarian | A498 renal | LXFL 529 NSCLC | SK-MEL-28 melanoma | NCI-H23 lung | HCT-116 colon | SW-620 colon | SF-268 CNS | HCC-2998 colon | SNB-75 CNS | SK-MEL-2 melanoma | UACC-62 melanoma | DLD-1 colon | RXF 393 renal | MOLT-4 leukemia | SN12C renal | SF-539 CNS | SNB-19 CNS | ACHN renal | KM12 colon | 786-0 renal | SK-MEL-5 melanoma | UO-31 renal | SNB-78 CNS | SR leukemia | UACC-257 melanoma | K-562 leukemia | COLO 205 colon | HOP-18 NSCLC | SF-295 CNS | CCRF-CEM leukemia | OVCAR-5 ovarian | DMS 273 small cell lung | NCI-H226 lung | A549 NSCLC | EKVX NSCLC | HT29 colon | DMS 114 small cell lung | M19-MEL melanoma | SK-OV-3 ovarian | MALME-3M melanoma | U251 CNS | RXF-631 renal | TK-10 renal | IGROV1 ovarian | RPMI-8226 leukemia

O=C1NC2(CCCCC2)C2CCCCC(O)C12 (centres undefined)
> 100 µM: OVCAR-8 ovarian | A498 renal | LXFL 529 NSCLC | SK-MEL-28 melanoma | NCI-H23 lung | HCT-116 colon | SW-620 colon | SF-268 CNS | HCC-2998 colon | SNB-75 CNS | SK-MEL-2 melanoma | UACC-62 melanoma | DLD-1 colon | RXF 393 renal | NCI-H460 lung | MOLT-4 leukemia | HOP-62 NSCLC | SN12C renal | SF-539 CNS | SNB-19 CNS | ACHN renal | KM12 colon | 786-0 renal | HL-60(TB) leukemia | UO-31 renal | SNB-78 CNS | SR leukemia | HCT-15 colon | UACC-257 melanoma | K-562 leukemia | COLO 205 colon | SF-295 CNS | KM20L2 colon | CCRF-CEM leukemia | OVCAR-5 ovarian | DMS 273 small cell lung | NCI-H226 lung | CAKI-1 renal | A549 NSCLC | EKVX NSCLC | HT29 colon | DMS 114 small cell lung | M19-MEL melanoma | OVCAR-3 ovarian | MALME-3M melanoma | U251 CNS | RXF-631 renal | TK-10 renal | IGROV1 ovarian | RPMI-8226 leukemia

NC(CCc1nc(-c2ccc(Cl)cc2)cs1)C(=O)O (centres undefined)
> 100 µM: OVCAR-8 ovarian | A498 renal | OVCAR-4 ovarian | LXFL 529 NSCLC | SK-MEL-28 melanoma | NCI-H23 lung | HCT-116 colon | SW-620 colon | SF-268 CNS | HCC-2998 colon | SNB-75 CNS | M14 melanoma | NCI-H522 lung | SK-MEL-2 melanoma | UACC-62 melanoma | DLD-1 colon | RXF 393 renal | NCI-H460 lung | MOLT-4 leukemia | HOP-62 NSCLC | SN12C renal | SNB-19 CNS | ACHN renal | KM12 colon | 786-0 renal | SK-MEL-5 melanoma | HL-60(TB) leukemia | UO-31 renal | SNB-78 CNS | SR leukemia | HCT-15 colon | UACC-257 melanoma | LOX IMVI melanoma | HOP-92 NSCLC | COLO 205 colon | HOP-18 NSCLC | SF-295 CNS | KM20L2 colon | CCRF-CEM leukemia | OVCAR-5 ovarian | DMS 273 small cell lung | NCI-H226 lung | CAKI-1 renal | A549 NSCLC | EKVX NSCLC | HT29 colon | M19-MEL melanoma | SK-OV-3 ovarian | OVCAR-3 ovarian | MALME-3M melanoma | U251 CNS | RXF-631 renal | TK-10 renal | IGROV1 ovarian | RPMI-8226 leukemia
